In Sander's compilation of Henry's law constants:

Assay: Henry solubility constant Hcp at 298.15 K (mol/(m3 Pa))
[1] = reference: Butler et al. (1935)
[2] = reference: Snider and Dawson (1985)
[3] = reference: Fenclová et al. (2010)
[4] = reference: Scharlin and Battino (1994)
[5] = reference: Scharlin and Battino (1995)

Cc1cncc(C)n1 [2,6-dimethylpyrazine]
Henry solubility constant Hcp (reference: Chaintreau et al. (1995)): 0.98

CCC(C)O (stereo not given) [2-butanol]
Henry solubility constant Hcp [1]: 0.96 | Henry solubility constant Hcp [2]: 1.1

[CH3][Sn]([CH3])([CH3])[CH3] [tetramethylstannane]
Henry solubility constant Hcp (reference: Abraham and Nasehzadeh (1981)): 9.4e-06

CCC(C)(C)O [2-methyl-2-butanol]
Henry solubility constant Hcp [1]: 0.71 | Henry solubility constant Hcp [3]: 0.72

C=CC(O)CCCCC (stereo not given) [1-octen-3-ol]
Henry solubility constant Hcp (reference: Druaux et al. (1998)): 0.25 | Henry solubility constant Hcp (reference: Roberts and Pollien (1997)): 0.13 | Henry solubility constant Hcp (reference: Wu et al. (2022a)): 0.19

CC(C)CCO [3-methyl-1-butanol]
Henry solubility constant Hcp (reference: Ammari and Schroen (2019)): 0.67 | Henry solubility constant Hcp [3]: 0.82

Clc1cc2oc3cc(Cl)c(Cl)cc3c2cc1Cl [2,3,7,8-tetrachlorodibenzofuran]
Henry solubility constant Hcp (reference: Friesen et al. (1993)): 0.59

FC(F)(F)Cl [chlorotrifluoromethane]
Henry solubility constant Hcp (reference: Park et al. (1982)): 7.8e-06 | Henry solubility constant Hcp (reference: Reichl (1995)): 8.9e-06 | Henry solubility constant Hcp [4]: 9e-06 | Henry solubility constant Hcp [5]: 9e-06

ClCC(Cl)Cl [1,1,2-trichloroethane]
Henry solubility constant Hcp (reference: Bobadilla et al. (2003)): 0.012

COc1c(Cl)cc(Cl)cc1Cl [1,3,5-trichloro-2-methoxybenzene]
Henry solubility constant Hcp (reference: Wu et al. (2022a)): 0.023

NCl [chloramine]
Henry solubility constant Hcp (reference: Holzwarth et al. (1984)): 0.92

C=CCN=C=S [allyl isothiocyanate]
Henry solubility constant Hcp (reference: Souchon et al. (2004)): 0.021

Fc1c(F)c(F)c(F)c(F)c1F [hexafluorobenzene]
Henry solubility constant Hcp (reference: Schröder et al. (2011)): 0.00029

FC(F)=C(F)C(F)(F)F [hexafluoropropene]
Henry solubility constant Hcp (reference: Maaßen (1995)): 6.8e-06

c1ccsc1 [thiophene]
Henry solubility constant Hcp (reference: Haimi et al. (2006)): 0.0041

C#CCC [1-butyne]
Henry solubility constant Hcp (reference: Simpson and Lovell (1962)): 0.00072

C/C=C/CCl [(E)-1-chloro-2-butene]
Henry solubility constant Hcp (reference: Bakierowska and Trzeszczyński (2003)): 0.0031

Cc1ccc(Br)cc1 [1-bromo-4-methylbenzene]
Henry solubility constant Hcp (reference: Brockbank et al. (2013)): 0.0034

COC(=O)OC [carbonic acid, dimethyl ester]
Henry solubility constant Hcp (reference: Böhme et al. (2008)): 0.16

CC1CNCCN1 (stereo not given) [2-methylpiperazine]
Henry solubility constant Hcp (reference: Nguyen (2013)): 5000

Cc1ccc(O)cc1 [1-hydroxy-4-methylbenzene]
Henry solubility constant Hcp (reference: Dohnal and Fenclová (1995)): 13 | Henry solubility constant Hcp (reference: Feigenbrugel et al. (2004b)): 10 | Henry solubility constant Hcp (reference: Parsons et al. (1972)): 13

CCN(CC)N=O [N-nitrosodiethylamine]
Henry solubility constant Hcp (reference: Klein (1982)): 5.6 | Henry solubility constant Hcp (reference: Thompson et al. (2018)): 0.012

CCCCNC(C)=O [N-butylacetamide]
Henry solubility constant Hcp (reference: Gibbs et al. (1991)): 2700

COC(=O)C(C)O (stereo not given) [methyl 2-hydroxypropanoate]
Henry solubility constant Hcp (reference: Sanz and Gmehling (2005)): 9.1

FC(Cl)C(F)(F)C(F)(F)Cl (stereo not given) [1,3-dichloro-1,1,2,2,3-pentafluoro-propane]
Henry solubility constant Hcp (reference: Kutsuna (2013)): 0.00011

Brc1ccc(Oc2ccccc2)cc1 [4-bromodiphenyl ether]
Henry solubility constant Hcp (reference: Charles and Destaillats (2005)): 0.058

C1=Cc2cccc3cccc1c23 [acenaphthylene]
Henry solubility constant Hcp (reference: Warner et al. (1980)): 0.087

Cc1cnccn1 [2-methylpyrazine]
Henry solubility constant Hcp (reference: Buttery et al. (1971)): 4.5

FC(F)(F)F [tetrafluoromethane]
Henry solubility constant Hcp (reference: Ashton et al. (1968)): 2.1e-06 | Henry solubility constant Hcp (reference: Cosgrove and Walkley (1981)): 2.1e-06 | Henry solubility constant Hcp (reference: Morrison and Johnstone (1954)): 2e-06 | Henry solubility constant Hcp (reference: Park et al. (1982)): 2.1e-06 | Henry solubility constant Hcp (reference: Reichl (1995)): 2e-06 | Henry solubility constant Hcp [4]: 2.1e-06 | Henry solubility constant Hcp [5]: 2.1e-06 | Henry solubility constant Hcp (reference: Wen and Muccitelli (1979)): 2e-06

CCCO [1-propanol]
Henry solubility constant Hcp (reference: Burnett (1963)): 1.6 | Henry solubility constant Hcp [1]: 1.4 | Henry solubility constant Hcp (reference: Gupta et al. (2000)): 1.2 | Henry solubility constant Hcp (reference: Richon et al. (1985)): 1.8 | Henry solubility constant Hcp [2]: 1.3 | Henry solubility constant Hcp (reference: Straver and de Loos (2005)): 1.5 | Henry solubility constant Hcp (reference: Vitenberg and Dobryakov (2008)): 1.5

C=CCc1ccc(O)c(OC)c1 [2-methoxy-4-(2-propenyl)-phenol]
Henry solubility constant Hcp (reference: McFall et al. (2020)): 9.2

C[Si](C)(C)O[Si](C)(C)O[Si](C)(C)C [octamethyltrisiloxane]
Henry solubility constant Hcp (reference: Xu and Kropscott (2014)): 3.4e-07

CCCCCCCC(=O)OC [methyl octanoate]
Henry solubility constant Hcp (reference: Aprea et al. (2007)): 0.0099

CCS [ethanethiol]
Henry solubility constant Hcp (reference: Jou et al. (2021)): 0.0024 | Henry solubility constant Hcp (reference: Vitenberg et al. (1975)): 0.0022

C=CC=C [1,3-butadiene]
Henry solubility constant Hcp (reference: Ross and Hudson (1957)): 0.00014
